The results in this text go back to US5939403A, “Keratan sulfate oligosaccharide fraction and pharmaceutical containing the same” (Seikagaku Corporation, priority 1994, dated 1999).

Each structure is given as a SMILES string. Structures can show the parent of a compound that is named as a salt.

Experiment [1] deals with neutrophile of guinea pig. The experiment in a line: Inhibition of active oxygen (O2^-) generation in FMLP-stimulated neutrophile. The class given is cell-based, female Hartley guinea pigs. On the procedure: To female Hartley guinea pigs of five weeks old (purchased from Japan SLC), 20 ml of the 0.2% aqueous solution of glycogen (Type II; Oyster; Sigma) dissolved in saline which was previously sterilized with autoclave, was intraperitoneally administered. The guinea pigs were sacrificed by bleeding 16 hours after the administration, and 20 ml of the saline containing heparin at a concentration of 10 U/ml was intraperitoneally injected to recover the peritoneal exudate. Hereinafter all the operations were carried out under ice-water cooling condition except for incubation. The recovered exudate was centrifuged at 1,000 rpm for 10 minutes, the precipitate obtained was hemolyzed with purified water for 30 seconds, and returned into isotonicity with the Hanks' solution at double the concentration (not containing phenol red; Nissui Seiyaku), and further it was centrifuged at 1,000 rpm for 10 minutes. The precipitate obtained was suspended in the Hanks' solution and centrifuged and the operations were repeated once more to give the neutrophile.
The collected neutrophile of the guinea pigs was suspended in the Hanks' solution, the number of leukocyte in the suspension was determined by a cytometer (System K-2000; Toa Iyo Denshi Co.), and the suspension diluted with the Hanks' solution to 2×10^6 cells/ml was used in the determination as the cell suspension. After mixing 1 ml of the cell suspension and 10 μl of the purified keratan sulfate oligosaccharide (keratan sulfate tetrasaccharide (I), the keratan sulfate pentasaccharide (II), or the keratan sulfate disaccharide (III)) prepared in Example 1 described above, and the mixture was preincubated at 37° C. for an hour. […]
The supernatant obtained by the centrifugation was separated and the absorbance thereof was determined at 550 nm to estimate the quantity of reducing cytochrome c per 2×10^6 cells after the 10 minutes incubation. The quantity of reducing cytochrome c increases with the generation of active oxygen (O2^-). […]

The subject of a further experiment is allergic conjunctivitis. As to the kind of experiment: TDI-induced allergic conjunctivitis model, eye dropping. The class given is in vivo, female Hartley guinea pigs. As to the method: A variety of the keratan sulfate oligosaccharide was dropped in the eyes of the guinea pigs subjected to the induction of allergic conjunctivitis to examine the effect thereof.
Toluene diisocyanate (hereinafter referred to as TDI) was diluted with ethyl acetate to a concentration of 10%. To the bilateral vestibule of noses of 10 female Hartley guinea pigs of from about 900 to 1,000 g weight, the 10% TDI (10 μl/animal) obtained above was applied once a day for five days to prepare the TDI sensitization models. The PBS solution of the purified keratan sulfate tetrasaccharide (I) ([…]) which was prepared in Example 1 was dropped in the left eyes of the TDI sensitization models, while PBS was dropped in the right eyes as the control. The dose of dropping was one drop (48+4.6 μl (S.D.)) each from the eye dropper. After 10 minutes, 6.5 μl of 10% TDI was dropped to the both eyes to induce conjunctivitis. After five minutes standing, furthermore, the PBS solution of the keratan sulfate tetrasaccharide (I) ([…]) was dropped in the left eyes, and PBS was dropped in the right eyes. After 15 minutes, observation of the both eyes were carried out. The degree of conjunctivitis was evaluated regarding three items of hyperemia, edema and lacrimation into four grades such as point 0, +1, +2 and +3. In the figure, * represents that it has the significant difference with p<0.05 (wherein "p" means a level of significance by the .chi.^2 test).
The PBS solution of the purified keratan sulfate disaccharide (III), the keratan sulfate tetrasaccharide (I), and the keratan sulfate pentasaccharide (II) (6.0 mg/ml, respectively)which were prepared in Example 1 described above as the test substances were dropped, respectively, in the left eyes of the TDI sensitization models of 10 animals a group each which were prepared in the same manner as in (1) described above, and PBS was dropped in the right eyes as the control. The degree of conjunctivitis was evaluated in the same manner as in (1) described above. In the figure, * represents that it has the significant difference with p<0.05 (wherein "p" means a level of significance by the .chi.^2 test).
The PBS solution containing the purified keratan sulfate tetrasaccharide (I) which was prepared in Example 1 described above, at varieties of concentrations (6 mg/ml, 3 mg/ml, 1.5 mg/ml or 0.75 mg/ml) as the test substance, were dropped, respectively, in the left eyes of the TDI sensitization models of 10 animals a group each which were prepared in the same manner as in (1) described above, and PBS was dropped in the right eyes as the control. The degree of conjunctivitis was evaluated in the same manner as in (1) described above. In the figure, * represents that it has the significant differnce with p<0.05 (wherein "p" means a level of significance by the .chi.^2 test).

[2] abbreviates: 6.0 mg/ml eye drop, comparison of oligosaccharides.

Take `CC(=O)N[C@H]1C(O)O[C@H](COS(=O)(=O)O)[C@@H](O[C@@H]2O[C@H](COS(=O)(=O)O)[C@H](O)[C@H](O)[C@H]2O)[C@@H]1O` (stereo partly drawn) [keratan sulfate disaccharide (III), Gal(6S)β1-4GlcNAc(6S)]: the “inhibitory function for generation of active oxygen (O2^-) (FIG. 10)” value in experiment [1] is “slightly observed”. The “degree of conjunctivitis: hyperemia, edema and lacrimation (FIG. 12)” value with allergic conjunctivitis (setting [2]) is on record as “tended to show inhibition in all the items”.

For `CC(=O)N[C@H]1[C@H](O[C@H]2[C@@H](O)[C@@H](COS(=O)(=O)O)O[C@@H](O[C@H]3[C@H](O)[C@@H](NC(C)=O)C(O)O[C@@H]3COS(=O)(=O)O)[C@@H]2O)O[C@H](COS(=O)(=O)O)[C@@H](O[C@@H]2O[C@H](COS(=O)(=O)O)[C@H](O)[C@H](O)[C@H]2O)[C@@H]1O` (stereo partly drawn) [keratan sulfate tetrasaccharide (I), Gal(6S)β1-4GlcNAc(6S)β1-3Gal(6S)β1-4GlcNAc(6S)], in experiment [1] (0.01, 0.1 and 1.0 mg/ml), the “inhibition of generation of active oxygen (O2^-) (FIG. 10)” value is “remarkably inhibits the generation of active oxygen (O2^-) depending upon the concentration”. In the experiment with allergic conjunctivitis (setting [2]), the “degree of conjunctivitis: hyperemia, edema and lacrimation (FIG. 12)” value is reported as “tended to show inhibition in all the items”. The “degree of conjunctivitis: edema (FIG. 12)” value in the experiment on allergic conjunctivitis (6.0 mg/ml eye drop, comparison of oligosaccharides, p<0.05) is “shows a significant inhibitory effect on edema”. Further, the “degree of conjunctivitis: edema (FIG. 13)” value with allergic conjunctivitis (6 mg/ml, 3 mg/ml, and 1.5 mg/ml eye drop, p<0.05) is “showed a significant inhibitory effect on edema”. For the same compound, in the experiment on allergic conjunctivitis (100 mg/ml eye drop), the “degree of conjunctivitis: hyperemia, edema and lacrimation (FIG. 11)” value is on record as “tended to show inhibition in all the items”. Further, the “degree of conjunctivitis: edema (FIG. 11)” value with allergic conjunctivitis (100 mg/ml eye drop, p<0.05) is on record as “significantly inhibited edema compared with the control”. For the same compound, in the experiment with allergic conjunctivitis (6, 3, 1.5 and 0.75 mg/ml eye drop), the “degree of conjunctivitis: hyperemia, edema and lacrimation (FIG. 13)” value is listed as “tended to show inhibition in all the items”.
